The results in this text go back to patent US12215090B2, “Agents and methods for treating dysproliferative diseases” (Memorial Sloan-kettering Cancer Center, priority 2018, dated 2025).

Like-named read-outs stand apart in the source and are kept apart here.

What all share (type): cell-based
Experiment [1] deals with MOLT-4 (human acute lymphoblastic leukemia [ALL]). Nature of the experiment: cell viability assay, MOLT-4 cancer cells. The note with it: MOLT-4 T-ALL cells, 72 hours of exposure, cell titer glow reagent. How it is done:
(§1) The biological activity of compounds of the invention was evaluated in several assays. In a cell viability assay using cancer and normal cells lines MOLT-4 (human acute lymphoblastic leukemia [ALL]) and MRC-5 (human lung fibroblast), respectively, cell viability was assessed after 72 hours of exposure to a range of concentrations, using cell titer glow reagent from Promega to assess viability.

Experiment [2] relates to MRC-5 (human lung fibroblast). Nature of the experiment: cell viability assay, MRC-5 normal cells. The note with it: MRC5, MRC-5 non-cancer cells, 72 hours of exposure, cell titer glow reagent. As to the method: as §1
Experiment [3] concerns KOPTK1 cells, a murine T-cell ALL cell line. As to the kind of experiment: cell viability assay, KOPTK1 cells. The note with it: Mus musculus.
In experiment [4] the test system is DHL6 cells. Nature of the experiment: cell viability assay, DHL6 cells. The source says: (§2) FIGS. 1A, 1B, 1C, and 1D show the activity of compounds of the invention, compared to (−)-CR31B and (+)-CR31B in cell viability assays using (A) DHL6 cells, (B) Jurkat cells, (C) DoHH2 cells, and (D) LY8 cells. […] The following table reports the IC50s (in nM) for each lymphoma and leukemia cell type.

The test system of experiment [5] is Jurkat cells. As to the kind of experiment: cell viability assay, Jurkat cells.
From the text: as §2

In experiment [6] the test system is DoHH2 cells. As to the kind of experiment: cell viability assay, DoHH2 cells.
From the text: as §2

For experiment [7], the system named is LY8 cells. As to the kind of experiment: cell viability assay, LY8 cells.
From the text: as §2

Experiment [8] concerns DHL8 cells. Nature of the experiment: cell viability assay, DHL8 cells.
From the text: as §2

On to `CONC(=O)[C@H]1[C@@H](O)[C@@]2(O)c3c(OC)cc(OC)cc3O[C@@]2(c2ccc(O)cc2)[C@@H]1c1ccccc1` [Compound 1, (1R,2R,3S,3aR,8bS)-1,8b-dihydroxy-3a-(4-hydroxyphenyl)-N,6,8-trimethoxy-3-phenyl-2,3-dihydro-1Hcyclopenta[b]benzofuran-2-carboxamide], for which the IC50 was 5.3 nM in experiment [1]; greater than 1000 nM in experiment [2]; 50 nM in experiment [3]; 51.5 nM in experiment [4]; 63 nM in experiment [5] (Homo sapiens); 36.7 nM in experiment [6] (Homo sapiens, DOHH-2). For the same molecule, the IC50 in experiment [7] came out at 38.9 nM; in experiment [8], 74.9 nM.

As to (−)-CR31B [reference compound], the half-inhibitory concentration (IC50) was 7.62 nM in experiment [4]; 6.42 nM in experiment [5]; 7.3 nM in experiment [6]; 5.93 nM in experiment [7]; 7.21 nM in experiment [8].

`COc1cc(OC)c2c(c1)OC1(c3ccc(O)cc3)C(c3ccccc3)C(C(N)=O)C(O)C21O` (racemic) [Racemic mixture of Compounds 8 and 9, 1,8b-dihydroxy-3a-(4-hydroxyphenyl)-6,8-dimethoxy-3-phenyl-2,3-dihydro-1H-cyclopenta[b]benzofuran-2-carboxamide]: the IC50 in experiment [3] was found to be 10 nM; in experiment [4] it was 947 nM; in experiment [5] (Homo sapiens), 1730 nM; in experiment [6] (Homo sapiens, DOHH-2) it was 987 nM; in experiment [7], 2910 nM; in experiment [8] it was 1040 nM.

Turning to (+)-CR31B [reference compound], the IC50 in experiment [4] was roughly 4300 nM; in experiment [5] it was roughly 3110 nM; in experiment [6], 2530 nM; in experiment [7] it was 16500 nM; in experiment [8], 7480 nM.
